Assay results published in patent US10219516B2, “Molecules having pesticidal utility, and intermediates, compositions, and processes, related thereto” (priority 2015, dated 2019).
Where two headings read alike, the source gives them in different places.

Assays:
Type in all cases: in vivo
[1] = tested on: Cabbage Looper (Trichoplusia ni, TRIPNI); assay: Bioassay on Cabbage Looper (CL), 128-well diet tray assay; conditions: Trichoplusia ni
Outline: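 Second-instar larvae, one to five per well, were placed on artificial diet surface-treated with 50 μg/cm^2 test molecule applied in 90:10 acetone-water and dried, eight wells per molecule. Trays were covered, vented and held at 25° C., 14:10 light-dark for five to seven days; percent mortality per well was averaged.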

[2] = tested on: Beet Armyworm (Spodoptera exigua, LAPHEG); assay: Bioassay on Beet Armyworm (BAW), 128-well diet tray assay
Outline: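 Second-instar larvae, one to five per well, placed on artificial diet surface-treated with 50 μg/cm^2 compound applied in 90:10 acetone-water and dried. Held 5–7 days at 25° C., 14:10 light-dark. Percent mortality recorded per well and averaged over eight wells.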

[3] = tested on: Yellow Fever Mosquito (Aedes aegypti, AEDSAE); assay: Bioassay on Yellow Fever Mosquito (YFM), 96-well plate larval assay; conditions: for YFM rating: Yellow Fever Mosquito, 96-well plate larval assay; for YFM (Biological Results, rating): Species YFM (Yellow Fever Mosquito)
Outline: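 Compound stocks at 4000 ppm in DMSO were diluted with 90:10 water/acetone, and 15 μL aliquots were dispensed into six replicate plates. About 1-day-old larvae in liver-powder water were added per well. Plates were covered and held at room temperature for 3 days before each well was scored for mortality.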

[4] = Cabbage Looper, 128-well diet tray assay, read-out: CL rating
[5] = Beet Armyworm, 128-well diet tray assay, read-out: BAW rating
[6] = Species CL (Cabbage Looper), read-out: CL (Biological Results, rating)
[7] = Species BAW (Beet Armyworm), read-out: BAW (Biological Results, rating)

| Structure (SMILES) | pest or weed control at 50 µg/cm2 [1, 4] [%] | pest or weed control at 50 µg/cm2 [2, 5] [%] | YFM rating [3] | pest or weed control at 50 µg/cm2 [1, 6] [%] | pest or weed control at 50 µg/cm2 [2, 7] [%] | YFM (Biological Results, rating) [3] |
| --- | --- | --- | --- | --- | --- | --- |
| O=C(Nc1ccc2cc[nH]c2c1)c1cc(NC(=O)C2C(c3cc(Cl)cc(Cl)c3)C2(Cl)Cl)ccc1Cl (stereo not drawn) [PF126, 2-Chloro-5-(trans)-2,2-dichloro-3-(3,5-dichlorophenyl)cyclopropane-1-carboxamido)-N-(1H-indol-6-yl)benzamide] | 50 to 100 | 50 to 100 | A (80-100) | – | – | – |
| Cc1nc2cc(NC(=O)c3cc(NC(=O)C4C(c5cc(Cl)cc(Cl)c5)C4(Cl)Cl)ccc3Cl)ccc2s1 (stereo not drawn) [F455, 2-Chloro-5-(trans)-2,2-dichloro-3-(3,5-dichlorophenyl)cyclopropane-1-carboxamido)-N-(2-methylbenzo[d]thiazol-5-yl)benzamide] | 50 to 100 | 50 to 100 | A (80-100) | – | – | – |
| C=Cc1ccc(NC(=O)c2cc(NC(=O)[C@H]3[C@H](c4cc(Cl)cc(Cl)c4)C3(Cl)Cl)ccc2Cl)cc1 (relative stereo) [PF16, trans-2-Chloro-5-(2,2-dichloro-3-(3,5-dichlorophenyl)cyclopropane-1-carboxamido)-N-(4-vinylphenyl)benzamide] | 50 to 100 | 50 to 100 | A (80-100) | – | – | – |
| O=C(Nc1ccc2c(ccn2CCF)c1)c1cc(NC(=O)[C@H]2[C@H](c3cc(Cl)cc(Cl)c3)C2(Cl)Cl)ccc1Cl (relative stereo) [F496, 2-Chloro-5-(trans)-(2,2-dichloro-3-(3,5-dichlorophenyl)cyclopropane-1-carboxamido)-N-(1-(2-fluoroethyl)-1H-indol-5-yl)benzamide] | 50 to 100 | 50 to 100 | A (80-100) | – | – | – |
| COc1ccc(NC(=O)c2cc(NC(=O)[C@H]3[C@H](c4ccc(F)c(Cl)c4)C3(Cl)Cl)ccc2Cl)cn1 (relative stereo) [F551, 2-Chloro-5-(trans-2,2-dichloro-3-(3-chloro-4-fluorophenyl)cyclopropane-1-carboxamido)-N-(6-methoxypyridin-3-yl)benzamide] | 50 to 100 | 50 to 100 | A (80-100) | – | – | – |
| COc1c(F)cc(C2C(C(=O)Nc3ccc(Cl)c(C(=O)Nc4ccc(F)cc4F)c3)C2(Cl)Cl)cc1F (stereo not drawn) [F537, 2-Chloro-5-trans-(2,2-dichloro-3-(3,5-difluoro-4-methoxyphenyl)cyclopropane-1-carboxamido)-N-(2,4-difluorophenyl)benzamide] | 50 to 100 | 50 to 100 | A (80-100) | – | – | – |
| COc1cc(NC(=O)c2cc(NC(=O)[C@H]3[C@H](c4ccc(F)c(Cl)c4)C3(Cl)Cl)ccc2Cl)c(Br)cn1 (relative stereo) [F549, N-(5-Bromo-2-methoxypyridin-4-yl)-2-chloro-5-(trans-2,2-dichloro-3-(3-chloro-4-fluorophenyl)cyclopropane-1-carboxamido)benzamide] | 50 to 100 | 50 to 100 | A (80-100) | – | – | – |
| CN(C(=O)c1cc(NC(=O)[C@H]2[C@H](c3cc(F)cc(C(F)F)c3)C2(Cl)Cl)ccc1Cl)c1ccc(F)cc1 (relative stereo) [F594, 2-Chloro-5-(trans-2,2-dichloro-3-(3-(difluoromethyl)-5-fluorophenyl)cyclopropane-1-carboxamido)-N-(4-fluorophenyl)-N-methylbenzamide] | 50 to 100 | 50 to 100 | A (80-100) | – | – | – |
| CN1CCc2cc(NC(=O)c3cc(NC(=O)[C@H]4[C@H](c5cc(Cl)cc(Cl)c5)C4(Cl)Cl)ccc3Cl)ccc21 (relative stereo) [F473, 2-Chloro-5-(trans)-(2,2-dichloro-3-(3,5-dichlorophenyl)cyclopropane-1-carboxamido)-N-(1-methylindolin-5-yl)benzamide] | 50 to 100 | 50 to 100 | A (80-100) | – | – | – |
| C=Cc1ccc(NC(=O)[C@H]2[C@H](c3cc(Cl)cc(Cl)c3)C2(Cl)Cl)cc1C(=O)Nc1ccc(F)cc1 (relative stereo) [PF9, trans-5-(2,2-Dichloro-3-(3,5-dichlorophenyl)cyclopropanecarboxamido)-N-(4-fluorophenyl)-2-vinylbenzamide] | 50 to 100 | 50 to 100 | A (80-100) | – | – | – |
| N#Cc1cc(F)ccc1NC(=O)c1cc(NC(=O)[C@H]2[C@H](c3cc(Cl)cc(Cl)c3)C2(Cl)Cl)ccc1Cl [F535, 2-Chloro-N-(2-cyano-4-fluorophenyl)-5-((1R,3R)-2,2-dichloro-3-(3,5-dichlorophenyl)cyclopropane-1-carboxamido)benzamide] | 50 to 100 | 50 to 100 | A (80-100) | – | – | – |
| CC(=O)N(C(C)=O)c1ccc(NC(=O)c2cc(NC(=O)[C@H]3[C@H](c4cc(Cl)cc(Cl)c4)C3(Cl)Cl)ccc2Cl)c(C#N)c1 (relative stereo) [F469, trans-N-(4-(N-acetylacetamido)-2-cyanophenyl)-2-chloro-5-(2,2-dichloro-3-(3,5-dichlorophenyl)cyclopropane-1-carboxamido)benzamide] | 50 to 100 | 50 to 100 | A (80-100) | – | – | – |
| C#Cc1cccc(NC(=O)c2cc(NC(=O)C3C(c4cc(Cl)cc(Cl)c4)C3(Cl)Cl)ccc2Cl)c1 (stereo not drawn) [PF124, 2-Chloro-5-(trans)-2,2-dichloro-3-(3,5-dichlorophenyl)cyclopropane-1-carboxamido)-N-(3-ethynylphenyl)benzamide] | 50 to 100 | 50 to 100 | A (80-100) | – | – | – |
| Cl.Nc1ccc(NC(=O)c2cc(NC(=O)[C@H]3[C@H](c4cc(Cl)cc(Cl)c4)C3(Cl)Cl)ccc2Cl)cc1 (relative stereo) [PF21, trans-N-(4-aminophenyl)-2-chloro-5-(2,2-dichloro-3-(3,5-dichlorophenyl)cyclopropane-1-carboxamido)benzamide hydrochloride] | 50 to 100 | 50 to 100 | A (80-100) | – | – | – |
| Cc1cc(N)ccc1NC(=O)c1cc(NC(=O)[C@H]2[C@H](c3cc(Cl)cc(Cl)c3)C2(Cl)Cl)ccc1Cl (relative stereo) [F195, trans-N-(4-Amino-2-methylphenyl)-2-chloro-5-(2,2-dichloro-3-(3,5-dichlorophenyl)cyclopropane-1-carboxamido)benzamide] | – | – | – | 50 to 100 | 50 to 100 | A (80-100) |
| COc1c(Cl)cc([C@H]2[C@H](C(=O)Nc3ccc(Cl)c(C(=O)Nc4ccc(F)cc4F)c3)C2(Cl)Cl)cc1Cl (relative stereo) [F180, trans-2-Chloro-5-(2,2-dichloro-3-(3,5-dichloro-4-methoxyphenyl)cyclopropane-1-carboxamido)-N-(2,4-difluorophenyl)benzamide] | – | – | – | 50 to 100 | 50 to 100 | A (80-100) |
| O=C(Nc1ccc(F)cc1)c1cc(NC(=O)[C@H]2[C@H](c3ccc(Br)c(Cl)c3)C2(Cl)Cl)ccc1Cl (relative stereo) [F270, 5-(trans-3-(4-Bromo-3-chlorophenyl)-2,2-dichlorocyclopropane-1-carboxamido)-2-chloro-N-(4-fluorophenyl)benzamide] | – | – | – | 50 to 100 | 50 to 100 | A (80-100) |
| O=C(Nc1ccc([N+](=O)[O-])cn1)c1cc(NC(=O)[C@H]2[C@H](c3cc(Cl)cc(Cl)c3)C2(Cl)Cl)ccc1Cl (relative stereo) [F293, 2-Chloro-5-(trans-2,2-dichloro-3-(3,5-dichlorophenyl)cyclopropane-1-carboxamido)-N-(5-nitropyridin-2-yl)benzamide] | – | – | – | 50 to 100 | 50 to 100 | A (80-100) |
| C=C(F)c1cc(Cl)cc([C@H]2[C@H](C(=O)Nc3ccc(Cl)c(C(=O)Nc4ccc(F)cc4F)c3)C2(Cl)Cl)c1 (relative stereo) [F386, 2-Chloro-5-(trans-2,2-dichloro-3-(3-chloro-5-(1-fluorovinyl)phenyl)cyclopropane-1-carboxamido)-N-(2,4-difluorophenyl)benzamide] | 50 to 100 | 50 to 100 | A (80-100) | – | – | – |
| C=Cc1c(F)cnc(NC(=O)c2cc(NC(=O)[C@H]3[C@H](c4cc(Cl)cc(Cl)c4)C3(Cl)Cl)ccc2Cl)c1F (relative stereo) [F393, trans-2-chloro-5-(2,2-dichloro-3-(3,5-dichlorophenyl)cyclopropane-1-carboxamido)-N-(3,5-difluoro-4-vinylpyridin-2-yl)benzamide] | 50 to 100 | 50 to 100 | A (80-100) | – | – | – |
| C=Cc1cc([C@H]2[C@H](C(=O)Nc3ccc(Cl)c(C(=O)Nc4ccc(F)cc4F)c3)C2(Cl)Cl)ccc1C(F)(F)F (relative stereo) [F392, 2-Chloro-5-(trans-2,2-dichloro-3-(4-(trifluoromethyl)-3-vinylphenyl)cyclopropane-1-carboxamido)-N-(2,4-difluorophenyl)benzamide] | 50 to 100 | 50 to 100 | A (80-100) | – | – | – |
